Test results: patent US20150212068A1, “Cholyl-L-Lysyl-Fluorescein Assay” (Novassay SA, priority 2012, published 2015)
“Also recorded” adds a separate entry of the source.

Tests used:
[1] = Stability (LTD samples) of CLF in plasma measured with the CLF ELISA; type: in vitro ADME, human
Method: (§1) These conditions were used for all assays described in Phase 2a (above) and Phase 2b (below). See Appendix B and C for buffer and conjugate formulations respectively: • Add 25 μl/well of sample or standard (0-1000 ng/ml CLF in Buffer #24) to the wells of a streptavidin-coated microtitre plate (NovAssay, F2SAC). • Add 100 μl/well of fluorescein-biotin (Sigma B9431) at 20 ng/ml in Buffer #24+0.2% w/v ANS (Sigma 10417). • Add 100 μl/well of anti-fluorescein HRP (NovAssay, DV047/17-3) at 100 ng/ml in Buffer #24. • Incubate the plate for 30 minutes at room temperature. • Wash the plate 3 times with 800 μl/well Buffer #29 and tap the plate dry. • Add 100 μl/well of SureBlue Reserve TMB Substrate (KPL) and incubate the plate for 10 minutes at room temperature. • Stop the substrate reaction by adding 100 μl/well of 1M HCl and read the absorbance at 450 nm wavelength (ThermoFisher Scientific, Multiskan FC).
The samples provided (LTD) included 8 “standards” (no details of their preparation were given, apart from the concentration which ranged from 0 to 100 ng/ml) and samples which were presumed to be stability samples (no details of their preparation were given). The stability work appeared to have been undertaken on 3 individual donor samples. Note, that 2 of the donor samples were heavily haemolysed.

[2] = Effect of light exposure on CLF-spiked serum, 48 hrs at room temperature, CLF ELISA; type: physicochemical, human; conditions: for % difference (light from dark) / observed Light / observed dark: serum pool; for % difference (light from dark) / observed dark: 48 hrs at RT; for observed Light: 48 hrs at RT near light source; for observed dark: covered with aluminium foil
Method: as §1
For the study of the effect of light, 3 pools of serum were spiked with CLF at 31.25, 125 and 500 ng/ml. One aliquot of each pool was put near a light source (fluorescent bulb 58 watts, at a distance of 85 cm). The “dark” sample was covered with aluminium foil. The samples were at RT (˜18-22° C.). Storage time was 48 hrs.

[3] = Stability of CLF in human plasma at room temperature and 4° C. after 30 min pre-incubation in whole blood at 37° C. (Test 2), HPLC-MS/MS; type: in vitro ADME; conditions: for CLF concentration: plasma after 30 min blood pre-incubation at 37° C., mean ± SEM (n = 2); for percentage of compound remaining (by comparing with content at To), lowest over incubation / CLF remaining: plasma after blood pre-incubation; for percentage of compound remaining (by comparing with content at To), lowest over incubation: up to 24 h; for CLF remaining: vs To
Method: Eighty microliters (80 μl) of the working solution of CLF were added to 8 ml of human EDTA blood. The final concentration of CLF in blood was of 100 ng/ml. Then, sample was incubated at 37° C. in water bath for 30 min and plasma was prepared as described previously. Plasma was then divided into two equal fractions of 2 ml each. One fraction was incubated at room temperature and the second one was incubated at 4° C. in a cold room. Two aliquots of 200 μl were taken from both fractions just before incubation and after 30 min, 120 min and 24 h of incubation. Samples were stored at −70° C. until further analysis. […] Thus, a stock solution of IS at 100 μg/ml in acetonitrile was 50-fold diluted in acetonitrile in order to obtain a final concentration of 2 μg/ml. Then, 200 μl of this solution were added to each plasma sample in order to precipitate the proteins. Samples were vortexed/mixed and centrifuged 5 min at 20,000 g (4° C.). After centrifugation, the clear supernatant (around 250 μl) was transferred into 1.2 ml HPLC glass vials and sealed. Samples were placed into the refrigerated autosampler and 20 μl were injected into the HPLC-MS/MS system. Test samples were injected twice. […] The injected volume of sample was 20 μl and the “full loop” mode was applied. The temperature of the analytical column was kept at 30° C. CLF and its IS were separated on an Acclaim 120 C18 column (5 μm, 2.1×100 mm, Dionex) by elution with a linear gradient of acetonitrile in water as described in Table 6. An ion trap mass spectrometer equipped with an ESI interface was operated in the positive ionization mode. For each compound, the most abundant ion formed in MS was selected for MS/MS fragmentations. In order to increase the sensitivity and the specificity of the method, the MRM mode was selected. The most specific daughter ions formed in MS/MS were used for quantification.

[4] = room temperature (25 ± 2° C.), 0.0 hours
[5] = room temperature (25 ± 2° C.), 0.5 hours
[6] = room temperature (25 ± 2° C.), 2.0 hours
[7] = room temperature (25 ± 2° C.), 24.0 hours

SMILES: CC(CCC(=O)NC(CCCCNC(=S)Nc1ccc(-c2c3ccc(=O)cc-3oc3cc(O)ccc23)c(C(=O)O)c1)C(=O)O)C1CCC2C3C(O)CC4CC(O)CCC4(C)C3CC(O)C12C [CLF, Cholyl-L-Lysyl-Fluorescein]
- comparison of storage temperatures ([1]; LTD plasma stability samples, 4° C. vs RT (~18-22° C.)): 4 °C storage is slightly better than RT
- percent loss of CLF ([1]; LTD plasma stability samples, 24 hours): approximately 10%
- percent loss of CLF ([1]; PLASMA 2.4, T0): 0%
- percent loss of CLF ([1]; PLASMA 2.4, T30): −11%
- percent loss of CLF ([1]; PLASMA 2.4, T120): −12%
- percent loss of CLF ([1]; PLASMA 2.4, T24 h): −11%
- percent loss of CLF ([1]; PLASMA 2.5.1, T0): 0%
- percent loss of CLF ([1]; PLASMA 2.5.1, T30, 4° C.): 3%
- percent loss of CLF ([1]; PLASMA 2.5.1, T30 RT): −5%
- percent loss of CLF ([1]; PLASMA 2.5.1, T120 4° C.): 1%
- percent loss of CLF ([1]; PLASMA 2.5.1, T120 RT): −6%
- percent loss of CLF ([1]; PLASMA 2.5.1, T24 h 4° C.): −9%
- percent loss of CLF ([1]; PLASMA 2.5.1, T24 h RT): −13%
- percent loss of CLF ([1]; PLASMA 2.5.2, T0): 0%
- percent loss of CLF ([1]; PLASMA 2.5.2, T30, 4° C.): 10%
- percent loss of CLF ([1]; PLASMA 2.5.2, T30 RT): 3%
- percent loss of CLF ([1]; PLASMA 2.5.2, T120 4° C.): 10%
- percent loss of CLF ([1]; PLASMA 2.5.2, T120 RT): 1%
- percent loss of CLF ([1]; PLASMA 2.5.2, T24 h 4° C.): −5%
- percent loss of CLF ([1]; PLASMA 2.5.2, T24 h RT): −14%
- CLF immunoreactivity lost ([2]; exposed to light, after 48 hrs): long period, with up to 25% of CLF
- % difference (light from dark) ([2]; expected 31.25 ng/ml): 0%
- observed Light ([2]; expected 31.25 ng/ml): 37 ng/mL
- observed dark ([2]; expected 31.25 ng/ml): 37 ng/mL
- % difference (light from dark) ([2]; expected 125 ng/ml): −25%
- observed Light ([2]; expected 125 ng/ml): 107 ng/mL
- observed dark ([2]; expected 125 ng/ml): 143 ng/mL
- % difference (light from dark) ([2]; expected 500 ng/ml): −15%
- observed Light ([2]; expected 500 ng/ml): 423 ng/mL
- observed dark ([2]; expected 500 ng/ml): 495 ng/mL
- CLF immunoreactivity lost on exposure to light ([2]; spiked serum, 48 hrs, room temperature, fluorescent bulb vs dark): up to 25%
- plasmatic concentrations measured ([3]; blood spiked with 100 ng/ml, plasma at 4° C. and room temperature, 0-24 h): 147.7 to 164.9 ng/mL
- CLF concentration ([3]; 4° C., 0.0 hours): 163.3 ± 3.6 ng/mL
- CLF concentration ([3]; 4° C., 0.5 hours): 155.4 ± 7.0 ng/mL
- CLF concentration ([3]; 4° C., 2.0 hours): 164.9 ± 4.2 ng/mL
- CLF concentration ([3]; 4° C., 24.0 hours): 152.7 ± 4.2 ng/mL
- CLF concentration [3, 4]: 163.3 ± 3.6 ng/mL
- CLF concentration [3, 5]: 159.3 ± 0.6 ng/mL
- CLF concentration [3, 6]: 151.1 ± 0.8 ng/mL
- CLF concentration [3, 7]: 147.7 ± 3.7 ng/mL
- percentage of compound remaining (by comparing with content at To), lowest over incubation ([3]; 4° C.): ≥ 93.5%
- percentage of compound remaining (by comparing with content at To), lowest over incubation ([3]; room temperature): at least 90.5%
- CLF remaining ([3]; 4° C., 0.0 hours): 100.0%
- CLF remaining ([3]; 4° C., 0.5 hours): 95.2%
- CLF remaining ([3]; 4° C., 2.0 hours): 101.0%
- CLF remaining ([3]; 4° C., 24.0 hours): 93.5%
- CLF remaining [3, 4]: 100.0%
- CLF remaining [3, 5]: 97.6%
- CLF remaining [3, 6]: 92.5%
- CLF remaining [3, 7]: 90.5%
- CLF stability in plasma after pretreatment of whole blood at 37° C. ([3]; room temperature and 4° C., up to 24 hours): stable during 24 h; also recorded: stable under these conditions
